Test results reported in US8791102B2, “Acetanilide sphingosine-1-phosphate receptor antagonists” (Exelixis, Inc., priority 2008, dated 2014).

Molecular target: T1, human S1P1 receptors (Homo sapiens, UniProt P21453)
T1 construct: host or cells: HEK293
Experiment: S1P1R antagonist assay (fluorescent membrane potential dye, cAMP readout)
Assay type: cell-based
Details: HEK293 cells expressing human S1P1 receptors and CNG channel; 500 nM NECA; S1P1R agonist 10 nM; 90 minutes; read-out: EC50 or IC50 value

T1 sequence (P21453 whole entry): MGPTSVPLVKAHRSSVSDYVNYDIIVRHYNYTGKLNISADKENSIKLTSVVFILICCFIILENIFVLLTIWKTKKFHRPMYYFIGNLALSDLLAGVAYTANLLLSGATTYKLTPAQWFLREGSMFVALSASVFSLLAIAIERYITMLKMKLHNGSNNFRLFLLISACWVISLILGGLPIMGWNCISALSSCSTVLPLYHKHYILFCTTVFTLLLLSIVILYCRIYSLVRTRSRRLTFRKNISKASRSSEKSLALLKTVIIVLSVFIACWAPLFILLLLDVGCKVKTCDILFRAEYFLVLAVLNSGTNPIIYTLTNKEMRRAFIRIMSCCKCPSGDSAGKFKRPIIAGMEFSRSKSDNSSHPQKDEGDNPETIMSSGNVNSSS

SMILES	IC50
O=C(Nc1ccc(Oc2ccc(F)cc2)cc1)[C@@H]1C[C@@H](Cc2ccccc2)CN1C(=O)Cc1cccs1 [Compound 117, (2S,4R)-4-benzyl-N-(4-(4-fluorophenoxy)phenyl)-1-(2-(thien-2-yl)acetyl)pyrrolidine-2-carboxamide]	≤ 300 nM
CC(O)CC(=O)N1C[C@H](Cc2ccccc2)C[C@H]1C(=O)Nc1ccc(Oc2ccc(F)cc2)cc1 (stereo partly drawn) [Compound 118, (2S,4R)-4-benzyl-N-(4-(4-fluorophenoxy)phenyl)-1-(3-hydroxybutanoyl)pyrrolidine-2-carboxamide]	≤ 300 nM
O=C(Nc1ccc(Oc2ccc(F)cc2)cc1)[C@@H]1C[C@@H](Cc2ccccc2)CN1C(=O)Cc1c(Cl)cccc1Cl [Compound 119, (2S,4R)-4-benzyl-1-(2-(2,6-dichlorophenyl)acetyl)-N-(4-(4-fluorophenoxy)phenyl)pyrrolidine-2-carboxamide]	≤ 300 nM
O=C(Nc1ccc(Oc2ccc(F)cc2)cc1)[C@@H]1C[C@@H](Cc2ccccc2)CN1C(=O)CO [Compound 120, (2S,4R)-4-benzyl-N-(4-(4-fluorophenoxy)phenyl)-1-(2-hydroxyacetyl)pyrrolidine-2-carboxamide]	≤ 300 nM
CCOCC(=O)N1C[C@H](Cc2ccccc2)C[C@H]1C(=O)Nc1ccc(Oc2ccc(F)cc2)cc1 [Compound 121, (2S,4R)-4-benzyl-1-(2-ethoxyacetyl)-N-(4-(4-fluorophenoxy)phenyl)pyrrolidine-2-carboxamide]	≤ 300 nM
COCC(=O)N1C[C@H](Cc2ccccc2)C[C@H]1C(=O)Nc1ccc(Oc2ccc(F)cc2)cc1 [Compound 122, (2S,4R)-4-benzyl-N-(4-(4-fluorophenoxy)phenyl)-1-(2-methoxyacetyl)pyrrolidine-2-carboxamide]	≤ 300 nM
CC(=O)CCC(=O)N1C[C@H](Cc2ccccc2)C[C@H]1C(=O)Nc1ccc(Oc2ccc(F)cc2)cc1 [Compound 123, (2S,4R)-4-benzyl-N-(4-(4-fluorophenoxy)phenyl)-1-(4-oxopentanoyl)pyrrolidine-2-carboxamide]	≤ 300 nM
O=C(CCC(=O)N1C[C@H](Cc2ccccc2)C[C@H]1C(=O)Nc1ccc(Oc2ccc(F)cc2)cc1)c1ccccc1 [Compound 124, (2S,4R)-4-benzyl-N-(4-(4-fluorophenoxy)phenyl)-1-(4-oxo-4-phenylbutanoyl)pyrrolidine-2-carboxamide]	≤ 300 nM
COC(=O)CCC(=O)N1C[C@H](Cc2ccccc2)C[C@H]1C(=O)Nc1ccc(Oc2ccc(F)cc2)cc1 [Compound 125, methyl 4-((2S,4R)-4-benzyl-2-(4-(4-fluorophenoxy)phenylcarbamoyl)pyrrolidin-1-yl)-4-oxobutanoate]	≤ 300 nM
O=C(CN1CCN(c2ccccn2)CC1)N[C@@H](COCc1ccccc1)C(=O)Nc1ccc(Oc2ccc(F)cc2)cc1 [Compound 126, (S)-3-(benzyloxy)-N-(4-(4-fluorophenoxy)phenyl)-2-(2-(4-(pyridin-2-yl)piperazin-1-yl)acetamido)propanamide]	> 1000 nM
O=C(CN1CCN(c2ccccc2F)CC1)N[C@@H](COCc1ccccc1)C(=O)Nc1ccc(Oc2ccc(F)cc2)cc1 [Compound 127, (S)-3-(benzyloxy)-N-(4-(4-fluorophenoxy)phenyl)-2-(2-(4-(2-fluorophenyl)piperazin-1-yl)acetamido)propanamide]	> 1000 nM
O=C(CN1CCCCCC1)N[C@@H](COCc1ccccc1)C(=O)Nc1ccc(Oc2ccc(F)cc2)cc1 [Compound 128, (S)-2-(2-(azepan-1-yl)acetamido)-3-(benzyloxy)-N-(4-(4-fluorophenoxy)phenyl)propanamide]	> 1000 nM
N#CCC(=O)N1C[C@H](Cc2ccccc2)C[C@H]1C(=O)Nc1ccc(Oc2ccc(F)cc2)cc1 [Compound 129, (2S,4R)-4-benzyl-1-(2-cyanoacetyl)-N-(4-(4-fluorophenoxy)phenyl)pyrrolidine-2-carboxamide]	≤ 300 nM
CC1CCN(CC(=O)N[C@@H](COCc2ccccc2)C(=O)Nc2ccc(Oc3ccc(F)cc3)cc2)CC1 [Compound 130, (S)-3-(benzyloxy)-N-(4-(4-fluorophenoxy)phenyl)-2-(2-(4-methylpiperidin-1-yl)acetamido)propanamide]	> 1000 nM
O=C(Cc1c[nH]cn1)N[C@@H](COCc1ccccc1)C(=O)Nc1ccc(Oc2ccc(F)cc2)cc1 [Compound 131, (S)-2-(2-(1H-imidazol-5-yl)acetamido)-3-benzyloxy-N-(4-(4-fluorophenoxy)phenyl)propanamide]	≤ 300 nM

Results, then the molecule that gave them:

IC50	SMILES
≤ 300 nM	O=C(Cc1c[nH]cn1)N[C@@H](COCc1ccc(F)cc1)C(=O)Nc1ccc(Oc2ccc(Cl)cc2)cc1 [Compound 132, (S)-2-(2-(1H-imidazol-5-yl)acetamido)-3-(4-fluorobenzyloxy)-N-(4-(4-chlorophenoxy)phenyl)propanamide]
≤ 300 nM	O=C(Cc1c[nH]cn1)N[C@@H](COCc1ccc(F)cc1)C(=O)Nc1ccc(Oc2ccc(F)cc2)cc1 [Compound 133, (S)-2-(2-(1H-imidazol-5-yl)acetamido)-3-(4-fluorobenzyloxy)-N-(4-(4-fluorophenoxy)phenyl)propanamide]
≤ 300 nM	O=C(Cn1ccnc1)N[C@@H](COCc1ccccc1)C(=O)Nc1ccc(Oc2ccc(F)cc2)cc1 [Compound 134, (S)-2-(2-(1H-imidazol-1-yl)acetamido)-3-benzyloxy-N-(4-(4-fluorophenoxy)phenyl)propanamide]
≤ 300 nM	O=C(Cn1cncn1)N[C@@H](COCc1ccc(F)cc1)C(=O)Nc1ccc(Oc2ccc(F)cc2)cc1 [Compound 135, (S)-2-(2-(1H-1,2,4-triazol-1-yl)acetamido)-3-(4-fluorobenzyloxy)-N-(4-(4-fluorophenoxy)phenyl)propanamide]
≤ 300 nM	O=C(CCl)N[C@@H](COCc1ccccc1)C(=O)Nc1ccc(Oc2ccc(F)cc2)cc1 [Compound 136, (S)-3-(benzyloxy)-2-(2-chloroacetamido)-N-(4-(4-fluorophenoxy)phenyl)propanamide]
≤ 300 nM	O=C(Cc1cnc[nH]1)N[C@@H](CCCc1ccccc1)C(=O)Nc1ccc(Oc2ccc(F)cc2)cc1 [Compound 137, (S)-2-(2-(1H-imidazol-5-yl)acetamido)-5-phenyl-N-(4-(4-fluorophenoxy)phenyl)pentanamide]
≤ 300 nM	O=C(Cn1nccn1)N[C@@H](COCc1ccccc1)C(=O)Nc1ccc(Oc2ccc(F)cc2)cc1 [Compound 138, (S)-2-(2-(2H-1,2,3-triazol-2-yl)acetamido)-3-(benzyloxy)-N-(4-(4-fluorophenoxy)phenyl)propanamide]
≤ 300 nM	O=C(Cn1cncn1)N[C@@H](COCc1ccccc1OC(F)(F)F)C(=O)Nc1ccc(Oc2ccc(F)cc2)cc1 [Compound 139, (S)-2-(2-(1H-1,2,4-triazol-1-yl)acetamido)-N-(4-(4-fluorophenoxy)phenyl)-3-(2-(trifluoromethoxy)benzyloxy)propanamide]
≤ 300 nM	O=C(Nc1ccc(Oc2ccc(F)cc2)cc1)[C@@H]1C[C@@H](Cc2ccccc2)CN1C(=O)Cn1cncn1 [Compound 140, (2S,4R)-1-(2-(1H-1,2,4-triazol-1-yl)acetyl)-4-benzyl-N-(4-(4-fluorophenoxy)phenyl)pyrrolidine-2-carboxamide]
≤ 300 nM	O=C(Nc1ccc(Oc2ccc(F)cc2)cc1)[C@@H]1C[C@@H](Cc2ccc(F)cc2)CN1C(=O)Cn1cncn1 [Compound 141, (2S,4R)-1-(2-(1H-1,2,4-triazol-1-yl)acetyl)-4-(4-fluorobenzyl)-N-(4-(4-fluorophenoxy)phenyl)pyrrolidine-2-carboxamide]
≤ 300 nM	O=C(Cc1cnc[nH]1)NC(COCc1ccccc1)C(=O)Nc1ccc(Oc2ccccc2)cc1 (stereo not shown) [Compound 142, 2-(2-(1H-imidazol-5-yl)acetamido)-3-benzyloxy-N-(4-phenoxyphenyl)propanamide]
≤ 300 nM	O=C(Cc1cnc[nH]1)N[C@@H](COCc1ccccc1)C(=O)Nc1ccc(Oc2ccccc2)cc1 [Compound 143, (S)-2-(2-(1H-imidazol-5-yl)acetamido)-3-benzyloxy-N-(4-phenoxyphenyl)propanamide]
≤ 300 nM	O=C(Cn1cnnn1)N[C@@H](COCc1ccccc1)C(=O)Nc1ccc(Oc2ccccc2)cc1 [Compound 144, (S)-2-(2-(1H-tetrazol-1-yl)acetamido)-3-benzyloxy-N-(4-phenoxyphenyl)propanamide]
≤ 300 nM	O=C(Cc1cnc[nH]1)N[C@@H](COCc1ccccc1)C(=O)Nc1ccc(Oc2ccc(Cl)cc2)cc1 [Compound 145, (S)-2-(2-(1H-imidazol-5-yl)acetamido)-3-benzyloxy-N-(4-(4-chlorophenoxy)phenyl)propanamide]
≤ 300 nM	O=C(Cn1cncn1)N[C@@H](COCc1ccccc1)C(=O)Nc1ccc(Oc2ccccc2)cc1 [Compound 146, (S)-2-(2-(1H-1,2,4-triazol-1-yl)acetamido)-3-(benzyloxy)-N-(4-phenoxyphenyl)propanamide]
≤ 300 nM	O=C(Cc1cnc[nH]1)N[C@@H](COCc1ccccc1)C(=O)Nc1ccc(Oc2ccccc2)c(Cl)c1 [Compound 147, (S)-2-(2-(1H-imidazol-4-yl)acetamido)-3-(benzyloxy)-N-(3-chloro-4-phenoxyphenyl)propanamide]
≤ 300 nM	O=C(Cc1cnc[nH]1)N[C@@H](COCc1ccccc1)C(=O)Nc1ccc(Oc2cccc(Cl)c2)cc1 [Compound 148, (S)-2-(2-(1H-imidazol-4-yl)acetamido)-3-(benzyloxy)-N-(4-(3-chlorophenoxy)phenyl)propanamide]
≤ 300 nM	O=C(Cn1cncn1)N[C@@H](COCc1ccccc1)C(=O)Nc1ccc(Oc2ccc(F)cc2)cc1 [Compound 149, (S)-2-(2-(1H-1,2,4-triazol-1-yl)acetamido)-3-benzyloxy-N-(4-(4-fluorophenoxy)phenyl)propanamide]
≤ 300 nM	Cc1noc(C)c1CC(=O)N[C@@H](COCc1ccccc1)C(=O)Nc1ccc(Oc2ccc(F)cc2)cc1 [Compound 150, (S)-3-(benzyloxy)-2-(2-(3,5-dimethylisoxazol-4-yl)acetamido)-N-(4-(4-fluorophenoxy)phenyl)propanamide]
